Measured values published in ChEMBL document CHEMBL1201862, “PubChem BioAssay data set” (2004).
The source made the active and inactive calls.

Columns and labels:
[1] = target: T1, RNA-binding protein pos-1 (Caenorhabditis elegans, UniProt G5EF15); test: disruptors of C. elegans POS-1 RNA interaction – biochemical, fluorescence polarization, dose response (AID 1964);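 further: purified POS-1 fused to maltose binding protein made in E. coli; potency of compounds blocking POS-1 binding to fluorescent RNA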
T1 sequence (G5EF15 whole entry): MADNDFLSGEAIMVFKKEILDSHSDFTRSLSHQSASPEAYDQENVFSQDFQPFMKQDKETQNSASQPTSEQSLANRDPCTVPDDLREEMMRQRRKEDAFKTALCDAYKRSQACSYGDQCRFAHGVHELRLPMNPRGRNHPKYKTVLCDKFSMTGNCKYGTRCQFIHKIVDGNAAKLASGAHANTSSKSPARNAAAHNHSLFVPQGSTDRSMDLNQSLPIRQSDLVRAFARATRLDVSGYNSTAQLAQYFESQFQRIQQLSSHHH

[2] = target: T2, Zinc finger protein mex-5 (Caenorhabditis elegans, UniProt Q9XUB2); test: potency of MEX-5 RNA-binding blockers – biochemical, C. elegans, fluorescence polarization, dose response (AID 1960)
T2 sequence (Q9XUB2 whole entry): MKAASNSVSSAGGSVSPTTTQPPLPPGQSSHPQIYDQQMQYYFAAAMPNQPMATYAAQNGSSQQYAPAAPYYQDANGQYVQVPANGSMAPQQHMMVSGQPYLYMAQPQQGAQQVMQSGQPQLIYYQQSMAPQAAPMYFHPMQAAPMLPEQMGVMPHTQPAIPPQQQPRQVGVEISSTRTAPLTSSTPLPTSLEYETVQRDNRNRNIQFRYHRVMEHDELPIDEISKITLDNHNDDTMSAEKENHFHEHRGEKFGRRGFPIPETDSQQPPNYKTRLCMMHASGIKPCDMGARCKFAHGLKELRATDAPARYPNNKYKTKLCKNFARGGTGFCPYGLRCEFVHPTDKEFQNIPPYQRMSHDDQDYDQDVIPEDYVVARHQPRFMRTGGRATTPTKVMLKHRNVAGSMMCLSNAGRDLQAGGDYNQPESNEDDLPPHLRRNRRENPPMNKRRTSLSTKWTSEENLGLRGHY

Protein RecA = target: T3, Protein RecA (Mycobacterium tuberculosis, UniProt P9WHJ3); test: RecA Intein Measured in Biochemical System Using Plate Reader - 2047-02_Inhibitor_Dose_DryPowder_Activity. [Related pubchem assays (depositor defined):AID2223]; design: species or system Mycobacterium tuberculosis H37Rv
T3 sequence (P9WHJ3 whole entry): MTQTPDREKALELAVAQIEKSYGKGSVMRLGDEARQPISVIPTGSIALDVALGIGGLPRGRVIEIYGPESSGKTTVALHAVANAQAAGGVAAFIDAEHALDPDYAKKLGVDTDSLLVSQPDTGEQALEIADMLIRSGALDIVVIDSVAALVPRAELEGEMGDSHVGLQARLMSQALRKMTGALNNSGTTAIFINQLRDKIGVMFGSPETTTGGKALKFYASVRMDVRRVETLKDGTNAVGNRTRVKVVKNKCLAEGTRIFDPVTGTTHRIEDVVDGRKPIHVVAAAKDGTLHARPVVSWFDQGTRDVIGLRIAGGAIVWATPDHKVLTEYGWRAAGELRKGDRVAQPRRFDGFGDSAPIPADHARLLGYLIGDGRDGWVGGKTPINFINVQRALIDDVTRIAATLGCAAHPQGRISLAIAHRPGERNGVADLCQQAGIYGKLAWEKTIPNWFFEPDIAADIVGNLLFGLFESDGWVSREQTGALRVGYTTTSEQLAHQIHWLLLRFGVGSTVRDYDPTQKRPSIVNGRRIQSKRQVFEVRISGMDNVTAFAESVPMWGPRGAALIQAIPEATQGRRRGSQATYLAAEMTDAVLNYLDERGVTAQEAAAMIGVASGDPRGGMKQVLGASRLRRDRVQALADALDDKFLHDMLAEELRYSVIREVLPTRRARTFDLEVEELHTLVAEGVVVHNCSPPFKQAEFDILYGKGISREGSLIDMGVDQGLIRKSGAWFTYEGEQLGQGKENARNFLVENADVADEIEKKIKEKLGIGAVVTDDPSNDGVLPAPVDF

[3] = non-specific 3'UTR reporter inhibition in Clone20-Shn3RL – cell-based, Renilla luciferase, cherry-picked, counter-screen for Shn3 inhibitor project, dose response (AID 624133); type: functional
[4] = toxicity toward HepG2 liver cells – cell-based, plate reader, cherry-pick, antagonist series, cytotoxicity control, dose response (AID 743416); type: functional
BJ = test: BJ-TERT-LT-ST fibroblast viability loss – cell-based, RAS-independent, luminescence, dose response (AID 1935); type: functional; details: Homo sapiens;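 further: BJ fibroblasts immortalized with TERT plus LT and ST oncogenes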
[5] = viability loss in CEM21 cells – cell-based, CellTiter-Glo luminescence, cherry-picked, cytotoxicity control for viral fusion inhibitor project, dose response (AID 652042); type: functional;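 further: potency for signal decrease meaning cytotoxicity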
[6] = HIV-1 AD8 envelope cell-cell fusion blockers – cherry-pick, dose response (AID 652062); type: functional, cell-based;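 further: luciferase signal from cell-cell fusion driven by HIV-1 clade B AD8 Env; potency is for inhibitors of fusion seen as a drop in luminescence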
[7] = general mammalian cell viability loss – inhibitor set, cherry-pick, set 2, cytotoxicity control for miR-122 modulator project, dose response (AID 720697); type: functional, cell-based

COc1ccc(NS(=O)(=O)c2ccc3c(c2)[C@H]2C=CC[C@H]2[C@@H](c2ccc(C(=O)O)cc2)N3)cc1
EC50 [1]: 14.3 µM (inconclusive) | EC50 [2]: 7.88 µM (active)

Cn1nc(-c2ccccn2)nc2c(=O)n(C)c(=O)nc1-2
AC50 (Protein RecA): 0.047 µM (active) | AC50 [3]: 2.96 µM (active) | AC50 [4]: 2.42 µM (active)

CCCCCCCCCCn1c2c(c(=N)c3c1CCC3)CCC2
EC50 (BJ): 5.73 µM (inconclusive) | AC50 [5]: 3.4 µM (active) | AC50 [6]: 0.726 µM (active) | AC50 [7]: 1.8 µM (active)
